The values below come from patent US20240277795A1, “INHIBITORS OF CYSTEINE PROTEASES AND METHODS OF USE THEREOF” (Pardes Biosciences, Inc., priority 2021, published 2024).

Read-outs that look alike come from different tables or passages of the source.

For one assay, the target named is SARS-COV2 Mpro (Severe acute respiratory syndrome coronavirus 2, UniProt P0DTD1). In words: COVID-19 (nCoV-2019, SARS-CoV2) Mpro enzymatic assay. The format is biochemical. The protocol: Compounds were assayed using standard methods to assess compound activity and IC50. As an exemplary for assessment of the SARS-COV2 Mpro, the C-His6-tagged Mpro (NC_045512) was cloned, expressed in E. coli and purified. The assay buffer contained 20 mM of Tris-HCl (pH 7.3), 100 mM of NaCl, 1 mM of EDTA, 5 mM of TCEP and 0.1% BSA. The final concentrations of the Mpro protein and substrate were 25 nM and 25 μM, respectively, in the Mpro enzymatic assay.
The compounds were added to an assay plate. For 100% inhibition control (HPE, hundred percent effect), 1 μM GC376 was added.
(§1) IC50 values of compounds were calculated with the GraphPad Prism software using the nonlinear regression model of log(inhibitor) vs. response—Variable slope (four parameters). The inhibition activity was calculated using the formula below, IC50 values is calculated using the Inhibition % data.
[formula] • #HEP: Hundred percent effect controls. […] Containing enzyme+substrate, no compound. • Sample: Compound activity testing wells. Containing compound+enzyme+substrate. • BG: Compound background control wells. Containing compound+substrate, no enzyme.

Another assay addresses OC43 Mpro (Human coronavirus OC43, UniProt P0C6X6). In words: OC43 Mpro enzymatic assay. The class given is biochemical, HCoV OC43. The protocol:
(§2) Compounds were assayed using standard methods to assess compound activity and IC50. As an exemplary for assessment of the SARS-COV2 Mpro, the C-His6-tagged Mpro (NC_045512) was cloned, expressed in E. coli and purified. The assay buffer contained 20 mM of Tris-HCl (pH 7.3), 100 mM of NaCl, 1 mM of EDTA, 5 mM of TCEP and 0.1% BSA. The final concentrations of the Mpro protein and substrate were 25 nM and 25 μM, respectively, in the Mpro enzymatic assay. The Km of the Mpro substrate for the protease was 13.5 μM.
(§3) The compounds were added to an assay plate. For 100% inhibition control (HPE, hundred percent effect), 1 μM GC376 was added. For no inhibition control (ZPE, zero percent effect), no compound was added.
as §1
(§4) [formula] • #HEP: Hundred percent effect controls. Containing substrate+enzyme+1 μM GC376. • ZPE: Zero percent effective controls. Containing enzyme+substrate, no compound. • Sample: Compound activity testing wells. Containing compound+enzyme+substrate. • BG: Compound background control wells. Containing compound+substrate, no enzyme.

In another assay the target is 229E Mpro (Human coronavirus 229E, UniProt P0C6X1). Kind of assay: 229E Mpro enzymatic assay. The class given is biochemical, HCoV 229E. The protocol: as §2, §3, §1, §4
Chain of 229E Mpro (P0C6X1 2966-3267): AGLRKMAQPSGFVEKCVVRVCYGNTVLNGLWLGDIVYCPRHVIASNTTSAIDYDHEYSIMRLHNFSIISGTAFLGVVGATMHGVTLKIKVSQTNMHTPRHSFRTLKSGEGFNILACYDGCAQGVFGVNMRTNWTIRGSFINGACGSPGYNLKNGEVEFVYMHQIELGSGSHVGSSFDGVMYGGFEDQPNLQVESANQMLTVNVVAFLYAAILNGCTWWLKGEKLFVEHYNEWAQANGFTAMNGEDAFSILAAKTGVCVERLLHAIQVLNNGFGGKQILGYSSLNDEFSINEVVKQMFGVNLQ
The next assay relates to HCoV 229E. Kind of assay: HCoV 229E cytopathic effect (CPE) assay. The format is cell-based. The following applies: read-out: 229E CPE EC50. The protocol:
Compounds were assayed using standard methods against multiple coronaviral strains, including HCoV 229E and OC43 strains. The antiviral activity of compounds was calculated based on the protection of the virus-induced CPE at each concentration normalized by the virus control.
Reagents and instruments used in this assay include luminescent cell viability assay kit CellTiter Glo (Promega) and Microplate Reader Synergy2 (BioTek).
Cytopathic effect (CPE) was measured by CellTiter Glo following the manufacturer's manual. The antiviral activity of compounds was calculated based on the protection of the virus-induced CPE at each concentration normalized by the virus control.
The cytotoxicity of compounds was assessed under the same conditions, but without virus infection, in parallel. Cell viability was measured with CellTiter Glo. The antiviral activity and cytotoxicity of compounds were expressed as % Inhibition and % Viability, respectively, and calculated with formulas.

[1] abbreviates: Table 3, read-out: COVID-19 Mpro IC50.
Setting [2] is: Table 5, read-out: COVID-19 Mpro IC50.

Chain of OC43 Mpro (P0C6X6 3247-3549): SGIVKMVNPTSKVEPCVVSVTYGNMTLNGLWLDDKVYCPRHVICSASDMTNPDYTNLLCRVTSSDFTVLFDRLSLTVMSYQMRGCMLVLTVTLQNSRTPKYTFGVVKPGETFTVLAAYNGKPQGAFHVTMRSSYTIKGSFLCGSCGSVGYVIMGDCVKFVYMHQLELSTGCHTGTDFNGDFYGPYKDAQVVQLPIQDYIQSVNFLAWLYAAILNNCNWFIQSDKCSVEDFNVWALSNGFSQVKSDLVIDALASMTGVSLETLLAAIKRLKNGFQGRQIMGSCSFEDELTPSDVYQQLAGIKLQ

As to `N#C[C@H](C[C@@H]1CC2(CC2)NC1=O)NC(=O)[C@H](CC1CC1)NC(=O)[C@H](Cc1cccc2ccccc12)NC(=O)OCc1ccccc1` [Compound 110, benzyl((S)-1-(((S)-1-(((S)-1-cyano-2-((R)-5-oxo-4-azaspiro[2.4]heptan-6-yl)ethyl)amino)-3-cyclopropyl-1-oxopropan-2-yl)amino)-3-(naphthalen-1-yl)-1-oxopropan-2-yl)carbamate], the IC50 against SARS-COV2 Mpro, on OC43 Mpro (Table 3) and on 229E Mpro (Table 3) was under 2000 nM each time. For the same compound, the EC50 in the assay with HCoV 229E (Table 4, CellTiter Glo) is under 2000 nM.

For `CC(C)(C)[C@H](NC(=O)c1cnccn1)C(=O)N1C[C@H]2[C@@H]([C@H]1C(=O)N[C@H](C#N)C[C@@H]1CC3(CC3)NC1=O)C2(C)C` [Compound 129, (1R,2S,5S)—N-[(1S)-1-cyano-2-[(6R)-5-oxo-4-azaspiro[2.4]heptan-6-yl]ethyl]-3-[(2S)-3,3-dimethyl-2-(pyrazine-2-carbonylamino)butanoyl]-6,6-dimethyl-3-azabicyclo[3.1.0]hexane-2-carboxamide], the IC50 on SARS-COV2 Mpro, at OC43 Mpro (Table 3) and against 229E Mpro (Table 3) was under 2000 nM in each case. In addition, the EC50 in the assay with HCoV 229E (Table 4, CellTiter Glo) was under 2000 nM.

As to `CC(C)(C)[C@H](NC(=O)OCC(F)(F)F)C(=O)N1C[C@H]2[C@@H]([C@H]1C(=O)N[C@H](C#N)C[C@@H]1CC3(CC3)NC1=O)C2(C)C` [Compound 132, 2,2,2-trifluoroethyl ((S)-1-((1R,2S,5S)-2-(((S)-1-cyano-2-((R)-5-oxo-4-azaspiro[2.4]heptan-6-yl)ethyl)carbamoyl)-6,6-dimethyl-3-azabicyclo[3.1.0]hexan-3-yl)-3,3-dimethyl-1-oxobutan-2-yl)carbamate], the IC50 at SARS-COV2 Mpro (setting [1]), against OC43 Mpro (Table 3) and at 229E Mpro (Table 3) was under 2000 nM each time. For the same compound, the EC50 with HCoV 229E is under 2000 nM.

As for `COCCOC(=O)N[C@H](C(=O)N1C[C@H]2[C@@H]([C@H]1C(=O)N[C@H](C#N)C[C@@H]1CC3(CC3)NC1=O)C2(C)C)C(C)(C)C` [Compound 133, 2-methoxyethyl ((S)-1-((1R,2S,5S)-2-(((S)-1-cyano-2-((R)-5-oxo-4-azaspiro[2.4]heptan-6-yl)ethyl)carbamoyl)-6,6-dimethyl-3-azabicyclo[3.1.0]hexan-3-yl)-3,3-dimethyl-1-oxobutan-2-yl)carbamate], the IC50 on SARS-COV2 Mpro, at OC43 Mpro (Table 3) and against 229E Mpro (Table 3) was under 2000 nM in each case. The EC50 in the assay on HCoV 229E (Table 4, CellTiter Glo) was under 2000 nM.

Turning to `C[C@@H](OC1(C#N)CC1)[C@H](NC(=O)C(F)(F)F)C(=O)N1C[C@H]2[C@@H]([C@H]1C(=O)N[C@H](C#N)C[C@@H]1CC(C)(C)NC1=O)C2(C)C` [Compound 334, (1R,2S,5S)-3-[(2S,3R)-3-(1-cyanocyclopropoxy)-2-[(2,2,2-trifluoroacetyl)amino]butanoyl]-N-[(1S)-1-cyano-2-[(3R)-5,5-dimethyl-2-oxo-pyrrolidin-3-yl]ethyl]-6,6-dimethyl-3-azabicyclo[3.1.0]hexane-2-carboxamide], the IC50 at SARS-COV2 Mpro (setting [2]), against OC43 Mpro (Table 5) and on 229E Mpro (Table 5) was under 2000 nM throughout.

For the compound `C[C@@H](OC1(C#N)CC1)[C@H](NC(=O)C(F)(F)F)C(=O)N1C[C@H]2[C@@H]([C@H]1C(=O)N[C@H](C#N)C[C@@H]1CC3(CC3)NC1=O)C2(C)C` [Compound 335], the IC50 on SARS-COV2 Mpro (setting [2]), against OC43 Mpro (Table 5) and against 229E Mpro (Table 5) was under 2000 nM in each case.

Turning to `C[C@@H](OC(C)(C)C(F)(F)F)[C@H](NC(=O)C(F)(F)F)C(=O)N1C[C@H]2[C@@H]([C@H]1C(=O)N[C@H](C#N)C[C@@H]1CC(C)(C)NC1=O)C2(C)C` [Compound 357, (1R,2S,5S)—N-[(1S)-1-cyano-2-[(3R)-5,5-dimethyl-2-oxo-pyrrolidin-3-yl]ethyl]-6,6-dimethyl-3-[(2S,3R)-2-[(2,2,2-trifluoroacetyl)amino]-3-(2,2,2-trifluoro-1,1-dimethyl-ethoxy)butanoyl]-3-azabicyclo[3.1.0]hexane-2-carboxamide], the IC50 at SARS-COV2 Mpro (setting [2]), at OC43 Mpro (Table 5) and at 229E Mpro (Table 5) was under 2000 nM throughout.

Consider `C[C@@H](OC(C)(C)C(F)(F)F)[C@H](NC(=O)C(F)(F)F)C(=O)N1C[C@H]2[C@@H]([C@H]1C(=O)N[C@H](C#N)C[C@@H]1CC3(CC3)NC1=O)C2(C)C` [Compound 358, (1R,2S,5S)—N-[(1S)-1-cyan-2-[(6R)-5-oxo-4-azaspiro[2.4]heptan-6-yl]ethyl]-6,6-dimethyl-3-[(2S,3R)-2-[(2,2,2-trifluoroacetyl)amino]-3-(2,2,2-trifluoro-1,1-dimethyl-ethoxy)butanoyl]-3-azabicyclo[3.1.0]hexane-2-carboxamide], for which the IC50 on SARS-COV2 Mpro (setting [2]), at OC43 Mpro (Table 5) and at 229E Mpro (Table 5) was under 2000 nM throughout.

Take `CC1(C)CCC(C[C@@H](C#N)NC(=O)[C@@H]2[C@@H]3[C@H](CN2C(=O)[C@@H](NC(=O)C(F)(F)F)C(C)(C)C)C3(C)C)C(=O)N1` (stereo partly drawn) [Compound 361, (1R,5S)—N-[(1S)-1-cyano-2-(6,6-dimethyl-2-oxo-3-piperidyl)ethyl]-3-[(2S)-3,3-dimethyl-2-[(2,2,2-trifluoroacetyl)amino]butanoyl]-6,6-dimethyl-3-azabicyclo[3.1.0]hexane-2-carboxamide]: the IC50 on SARS-COV2 Mpro (setting [1]) is under 2000 nM; on OC43 Mpro (Table 3), under 2000 nM; against 229E Mpro (Table 3), 10000 to 30000 nM.

For `CC(C)(C)[C@H](NC(=O)C(F)(F)F)C(=O)N1C[C@H]2[C@@H]([C@H]1C(=O)N[C@H](C#N)C[C@@H]1CC3(CCC3)NC1=O)C2(C)C` [Compound 362, (1R,2S,5S)—N-[(1S)-1-cyano-2-[(7R)-6-oxo-5-azaspiro[3.4]octan-7-yl]ethyl]-3-[(2S)-3,3-dimethyl-2-[(2,2,2-trifluoroacetyl)amino]butanoyl]-6,6-dimethyl-3-azabicyclo[3.1.0]hexane-2-carboxamide], the IC50 at SARS-COV2 Mpro (setting [1]), at OC43 Mpro (Table 3) and at 229E Mpro (Table 3) was under 2000 nM each time.

Regarding `CC(C)(C)[C@H](NC(=O)C(F)(F)F)C(=O)N1C[C@H]2[C@@H]([C@H]1C(=O)N[C@H](C#N)C[C@@]1(C)CC3(CC3)NC1=O)C2(C)C` [Compound 375], the IC50 on SARS-COV2 Mpro (setting [1]), at OC43 Mpro (Table 3) and on 229E Mpro (Table 3) was under 2000 nM each time.

Turning to `CO[C@H](C)[C@H](NC(=O)C(F)(F)F)C(=O)N1C[C@H]2[C@@H]([C@H]1C(=O)N[C@H](C#N)C[C@@H]1CC3(CCC3)NC1=O)C2(C)C` [Compound 425, (1R,2S,5S)—N-[(1S)-1-cyano-2-[(7R)-6-oxo-5-azaspiro[3.4]octan-7-yl]ethyl]-3-[(2S,3R)-3-methoxy-2-[(2,2,2-trifluoroacetyl)amino]butanoyl]-6,6-dimethyl-3-azabicyclo[3.1.0]hexane-2-carboxamide], the IC50 on SARS-COV2 Mpro (setting [2]), at OC43 Mpro (Table 5) and against 229E Mpro (Table 5) was under 2000 nM each time.

Regarding `C[C@@H](OC(C)(C)C)[C@H](NC(=O)C(F)(F)F)C(=O)N1C[C@H]2[C@@H]([C@H]1C(=O)N[C@H](C#N)C[C@@H]1CCCNC1=O)C2(C)C` [Compound 431, (1R, 2S, 5S)-3-((2S, 3R)-3-(tert-butoxy)-2-(2,2,2-trifluoroacetamido)butanoyl)-N—((S)-1-cyano-2-((S)-2-oxopiperidin-3-yl)ethyl)-6,6-dimethyl-3-azabicyclo[3.1.0]hexane-2-carboxamide], the IC50 at SARS-COV2 Mpro (setting [2]), at OC43 Mpro (Table 5) and against 229E Mpro (Table 5) was under 2000 nM in each case.
